Patent US6294650A, “Inhibition of mammalian telomerase by peptide nucleic acids” (The Board of Regents, University of Texas System, priority 1999, dated 2001)

Key:
human telomerase [1] = assay: TRAP assay of telomerase activity in HME50-5 cell extracts preincubated with PNA or PS oligomer; format: biochemical
Method: Cells were derived from a human immortal primary breast epithelial cell line (HME50-5) that expresses telomerase at high levels. Cell extracts were obtained by resuspending a 100,000 cell pellet into 200 μl of lysis buffer (0.5% 3-[3-cholamidopropyl-dimethylammonio]-1-propane-sulfonate (CHAPS), 10 mM Tris-HCl, pH 7.5, 1 mM ethylenebis(oxyethylene-nitrilo)tetraacetic acid (EGTA), 5 mM β-mercaptoethanol, 0.1 mM 4-(2-aminoethyl)benzenesulfonyl fluoride (AEBSF), 10% glycerol). The suspension was mixed by pipetting at least three times and kept on ice for 30 minutes. The lysate was centrifuged at 16,000×g for 20 minutes at 4° C., and 160 μl of the supernatant was collected. The cells were then diluted 10-fold to obtain a 50 cell equivalent/μl stock suspension, aliquoted, frozen in liquid nitrogen, and stored at -80° C. These aliquots were utilized throughout our experiments to ensure consistency.
The tubes were transferred to a PCR thermocycler set at 94° C. for 3 minutes to melt the wax barrier, cycled 30 times (30 seconds at 95° C., 30 seconds at 55° C. and 30 seconds at 72° C.) followed by a 3 minute extension at 72° C. The samples were frozen at -80° C. and the wax barrier removed. […] Gels were fixed for 30 minutes (1:1 ethanol: water, 0.5 M NaCl, 40 mM NaOAc, pH 4.2) then exposed to a phosphorimager screen for quantitation. […] Data was processed using ImageQuant software version 3.3.
Varied concentrations of PNA were added to cell extracts containing the TS primer. Telomerase products were visualized by gel electrophoresis and the extent of inhibition was quantified by phosphorimager analysis by evaluating each lane of the gels separately. The lanes were further separated into two areas for evaluation; one for the internal amplification standard (ITAS) and the other for all telomerase products. […] This ratio was taken to indicate telomerase activity with the ratio of the positive control being assigned 100% activity. The extent of inhibition as a function of the concentration of the added PNA was plotted and these graphs were utilized to derive the IC50.
Telomerase activity was measured using the telomeric repeat amplification protocol (TRAP). Rather than measure the change in chromosome length over time, a process that requires weeks to produce definitive results and measures telomerase activity only indirectly, the TRAP assay measures the elongation of a short oligonucleotide primer (TS primer) known to act as an efficient substrate of telomerase. Cell extracts from a human immortal breast epithelial cell line, HME50-5, expressing telomerase were preincubated with PNAs to allow recognition of complementary sequences by Watson-Crick base-pairing. The TS primer was then added to initiate chain elongation by telomerase. Following elongation of the TS primer, the mixture was transferred to a thermocycler and polymerase chain reaction (PCR) was performed to amplify the products. Two potential template DNAs were present, and amplification products were primed from either an internal amplification standard (ITAS) or from the product of telomerase elongation of the TS primer. These amplification products were separated by gel electrophoresis and quantitated separately. A ratio of the amount of amplified products of telomerase activity to that derived from amplification of the ITAS standard was determined and compared to a positive control to which no PNA was added. This comparison allowed calculation of the inhibition of telomerase activity due to a given concentration of PNA.

human telomerase [2] = assay: TRAP assay of telomerase activity in permeabilized HME50-5 cells; format: cell-based; settings: 37° C., read-out: IC50 (nM) Perm. Cells 37° C.
Method: To examine the ability of PNAs to inhibit telomerase activity within permeabilized cells HME50-5 cells were treated with a buffered solution containing a relatively low concentration of detergent (20 mM Tris-HCl, pH 8.3, 1.5 mM MgCl2, 68 mM KCl, 0.5% Tween 20, 1 mM EGTA, 5.0% glycerol, and 0.1 mM AEBSF). The telomerase activity in these cells was not further purified, and permeabilized cells were incubated with PNA and PS oligomers prior to assay for telomerase activity.
A further control experiment was performed to ensure that the observed. inhibition was due to PNA entry into permeabilized cells The TRAP assay was utilized to compare the level of telomerase activity retained inside permeabilized cells to activity which leaks into solution. This control was necessary to ensure that the observed inhibition was due to PNA inhibition of telomerase within cells. Permeabilized cells were centrifuged and the cell pellet and the cell-free supernatant were separately examined for telomere activity using the TRAP assay. Greater than 80% of telomerase activity remained associated with the cell pellet after this mild treatment, confirming that telomerase is largely retained inside permeabilized cells.
Telomerase activity was determined using the telomere repeat amplification protocol (TRAP) assay essentially as described (Piatyszek et al. (1995) Methods in Cell Science 17: 1) with the modification that the cellular extract was preincubated at 25° C. for 30 minutes with the PNA at the concentrations indicated. Following preincubation 3 μl of the cellular extract plus PNA was added to a PCR tube containing 46 μl of reaction buffer (20 mM Tris-HCl, pH 8.3, 1.5 MM MgCl2, 68 MM KCl, 0.05% Tween-20, 1 mM EGTA), 50 μM dNTPs, 0.1 μg TS primer (5'-[…]-3' (SEQ ID NO:23)), 5 attg ITAS template (25), 0.5 μM T4 gene 32 protein, 2 Units Taq polymerase, 4 μCi^32 P-α dCTP) above a wax barrier separating 0.1 μg of the CX, reverse primer (5'-[…]-3' (SEQ ID NO:24)), and incubated for 30 minutes to allow telomerase to elongate the TS primer. The tubes were transferred to a PCR thermocycler set at 94° C. for 3 minutes to melt the wax barrier, cycled 30 times (30 seconds at 95° C., 30 seconds at 55° C. and 30 seconds at 72° C.) followed by a 3 minute extension at 72° C. The samples were frozen at -80° C. and the wax barrier removed. The solution containing the PCR products (40 μl) was added to 3.3 μl of loading buffer and 20 μl was loaded onto a 10% non-denaturing polyacrylamide gel and separated by electrophoresis at 180 volts for 45 minutes followed by 280 volts for 1 hour and 45 minutes. Gels were fixed for 30 minutes (1:1 ethanol: water, 0.5 M NaCl, 40 mM NaOAc, pH 4.2) then exposed to a phosphorimager screen for quantitation. Phosphorimager analysis was performed utilizing a Molecular Dynamics model 425F phosphorimager. Data was processed using ImageQuant software version 3.3.
Varied concentrations of PNA were added to cell extracts containing the TS primer. Telomerase products were visualized by gel electrophoresis and the extent of inhibition was quantified by phosphorimager analysis by evaluating each lane of the gels separately. The lanes were further separated into two areas for evaluation; one for the internal amplification standard (ITAS) and the other for all telomerase products. A ratio of telomerase products to ITAS was determined and compared to a positive control in which no PNA had been added. This ratio was taken to indicate telomerase activity with the ratio of the positive control being assigned 100% activity. The extent of inhibition as a function of the concentration of the added PNA was plotted and these graphs were utilized to derive the IC50.
The potential for such interactions to interfere with the location of hTR by PNAs was evaluated by examining elongation under conditions more similar to those in vivo. PNAs were applied to HME50-5 cells that had been mildly permeabilized. […]

[3] = HME50-5 cell extract, 25° C., 30 min preincubation, read-out: IC50 (nM) Cell Extract 25° C.
[4] = HME50-5 cell extract, 37° C., read-out: IC50 (nM) Cell Extract 37° C.

Substance	IC50 (human telomerase [1]; [3])	IC50 (human telomerase [1]; [4])	IC50 (human telomerase [2])	further results
PNA (III): complementary PNA, sequence TTAGGGTTAG (all peptide nucleic acid (PNA))	200 nM	400 nM	500 nM	IC50 (human telomerase [1]; cell extract, 30 min preincubation, read-out: IC50 for inhibition of telomerase): 200 nM
PNA (IV): complementary PNA, sequence GTTAGGGTTAG (all peptide nucleic acid (PNA))			300 nM	
PNA (IX): complementary PNA, sequence TAGGGTTAGAC (all peptide nucleic acid (PNA))	10 nM			IC50 (human telomerase [1]; HME50-5 cell extract, 25° C., 30 min preincubation, listed as PNA IX, read-out: IC50 (nM) Cell Extract 25° C.): ~10 nM
PNA (V): complementary PNA, sequence AGTTAGGGTTAG (all peptide nucleic acid (PNA))	10 nM	75 nM	370 nM	
PNA (VI): complementary PNA, sequence CAGTTAGGGTTAG (all peptide nucleic acid (PNA))	10 nM	50 nM	75 nM	
PNA (VII): complementary PNA, sequence CTCAGTTAGGGTTAG (all peptide nucleic acid (PNA))		70 nM		
PNA (VIII): complementary PNA, sequence CCCTTCTCAGTTAGGGTTAG (all peptide nucleic acid (PNA))	200 nM	300 nM	400 nM	
PNA (X): complementary PNA, sequence GTTAGGGTTAGAC (antisense; all peptide nucleic acid (PNA))	10 nM			IC50 (human telomerase [1]; HME50-5 cell extract, 25° C., 30 min preincubation, listed as PNA X, read-out: IC50 (nM) Cell Extract 25° C.): ~10 nM
PNA (XI): complementary PNA, sequence GGGTTAGACAA (all peptide nucleic acid (PNA))	10 nM	50 nM	70 nM	IC50 (human telomerase [1]; HME50-5 cell extract, 25° C., 30 min preincubation, listed as PNA XI, read-out: IC50 (nM) Cell Extract 25° C.): ~10 nM
PNA (XII): complementary PNA, sequence TAGGGTTAGACAA (all peptide nucleic acid (PNA))	0.9 nM			preincubation time to reach maximal inhibition (human telomerase [1]; 300 pM PNA): ninety; preincubation time to reach maximal inhibition (human telomerase [1]; 200 nM PNA): five; reversibility of inhibition once maximal inhibition attained (human telomerase [1]; lengthy incubation with primer and nucleotides): effectively irreversible
PNA (XIII): complementary PNA, sequence GTTAGGGTTAGACAA (all peptide nucleic acid (PNA))		50 nM		
PNA (XIV): non-complementary PNA, sequence AGGATCTTCACCTAGATCCT (all peptide nucleic acid (PNA)) [reference compound]	> 33000 nM	> 33000 nM		inhibition of human telomerase activity (in words) (human telomerase [1]; cell extract): did not detectably inhibit
PNA (XV): non-complementary PNA, sequence TGTAAGGAACTAG (all peptide nucleic acid (PNA)) [reference compound]	> 33000 nM	> 33000 nM		inhibition of human telomerase activity (in words) (human telomerase [1]; cell extract): did not detectably inhibit
PS (I): complementary phosphorothioate oligonucleotide 5'-GTTAGGGTTAG-3' (all phosphorothioate, sugars by position not given here) [reference compound]	75 nM	250 nM		
PS (II): complementary phosphorothioate oligonucleotide CTCAGTTAGGGTTAG (all phosphorothioate, sugars by position and methylation of C not given here) [reference compound]	100 nM	700 nM		
PS (III): complementary phosphorothioate oligonucleotide TAGGGTTAGACAA (all phosphorothioate, sugars by position and methylation of C not given here) [reference compound]	50 nM	200 nM		
PS (IV): non-complementary phosphorothioate oligonucleotide AGGATCTTCACCTAGATCCT (all phosphorothioate, sugars by position and methylation of C not given here) [reference compound]	100 nM	400 nM		
PS (V): non-complementary phosphorothioate oligonucleotide TGTAAGGAACTAG (all phosphorothioate, sugars by position and methylation of C not given here) [reference compound]	100 nM	450 nM		
